Measured values: patent US11065234B2, “Estrogen receptor modulators” (Recurium IP Holdings, LLC, priority 2016, dated 2021)

Experiments:
MCF7 = assay: Breast Cancer Cell Proliferation Assay (MCF-7); type: cell-based; details: Homo sapiens, 120 h; MCF7 cells, 5 days of compound exposure, Cell Titer-Glo
Method: Breast Cancer Cell Proliferation Assay (MCF-7)
MCF7 was expanded and maintained in the medium (Phenol red free DMEM/F12 (Hyclone SH30272.01) NEAA (Gibco11140-050) Na-pyruvate (Gibco 11360-070) and Re-stripped Charcoal stripped FBS (Gemini 100-119)). The cells were adjusted to a concentration of 3,000 cells per mL in the above media, and the cells were incubated (37° C., 5% CO2). The following day a 10 point, serial dilution of compounds was added to the cells at a final concentration ranging from 10-0.000005 μM for test compounds (17β-estradiol was used as a control). Additional cells were plated in 30 wells to serve as the day 1 (pretreatment) comparison. After 5 days of compound exposure, Cell Titer-Glo reagent was added to the cells and the relative luminescence units (RLUs) of each well was determined. Cell Titer-Glo was also added to 32 μL of medium without cells to obtain a background value. The plates were allowed to incubate at room temperature for 10 minutes to stabilize luminescent signal and the luminescence signal was recorded with EnSpire. The relative increase in cell number of each sample is determined as follows: (RLU sample-RLU background/RLU estrogen only treated cells-RLU background)×100=% inhibition.

ERα = biological target: T1, ERα (Homo sapiens, UniProt P03372); assay: ER Degradation Determination by Western Blot; type: cell-based; details: MCF-7 cells, 10 μM, 18-24 hours
T1 construct: endogenous in cells; host or cells: MCF-7
T1 sequence (P03372 1-595): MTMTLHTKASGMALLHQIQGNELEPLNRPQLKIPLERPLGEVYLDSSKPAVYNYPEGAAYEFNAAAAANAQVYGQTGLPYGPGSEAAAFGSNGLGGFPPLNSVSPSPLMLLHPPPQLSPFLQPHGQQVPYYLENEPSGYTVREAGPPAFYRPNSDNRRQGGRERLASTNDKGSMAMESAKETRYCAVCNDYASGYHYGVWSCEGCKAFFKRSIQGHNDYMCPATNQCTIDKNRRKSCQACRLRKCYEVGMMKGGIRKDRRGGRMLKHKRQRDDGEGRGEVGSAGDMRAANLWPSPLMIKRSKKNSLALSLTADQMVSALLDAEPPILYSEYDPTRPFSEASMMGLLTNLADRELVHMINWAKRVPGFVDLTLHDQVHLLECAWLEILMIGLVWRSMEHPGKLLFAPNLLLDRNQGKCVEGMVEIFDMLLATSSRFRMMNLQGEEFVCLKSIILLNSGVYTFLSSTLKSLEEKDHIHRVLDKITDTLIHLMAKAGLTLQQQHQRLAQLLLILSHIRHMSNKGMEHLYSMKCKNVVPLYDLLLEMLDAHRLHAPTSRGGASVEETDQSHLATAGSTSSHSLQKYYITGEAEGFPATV
Method: ER Degradation Determination by Western Blot
MCF-7 cells are plated at 0.3 million cells/mL (3 mL/well) in 6-well plates in experiment media and incubated at 37° C., 5% CO2 for […]. Next day, 10× solution of compounds are made in DMSO and added the solution to the cells to achieve a final concentration of 10 μM. A DMSO control is included to enable a determination of the relative efficacy of test compounds. Fulvestrant is used as a positive control for ER-alpha degradation, and 4-OH tamoxifen as a control for receptor stabilization. After incubating cells with compounds for 18-24 hours, cell lysates are prepared (2× Cell lysis buffer:100 mM Tris, pH 8, 300 mM NaCl, 2% NP40, 1% Na deoxycholate, 0.04% SDS, 2 mM EDTA) and mixed thoroughly and incubated on ice. The protein concentration is quantified using BCA kit. […] The gel was then transferred onto a nitrocellulose membrane. […] GAPDH protein was used as an internal control.

[1] = Pharmacokinetic Determination (Rat PK); type: in vivo; details: plasma, female SD rats; for Vd: read-out: Vdss; for bioavailability: PO 10.0 mg/kg vs IV 3.0 mg/kg
Method: Example D Pharmacokinetic Determination
Grouping female SD rats weighing 200-300 g randomly to two groups; one group was administered with test compound at a dose of 3.0 mg/kg by intravenous injection, the other group was administered with test compound at a dose of 10.0 mg/kg by oral. The formulation for IV groups is DMSO/PEG400/150 mM glycine (pH 9) (5/10/85) and the formulation for PO groups is PEG400/PVP/Tween 80/0.5% CMC in water (9/0.5/0.5/90). After administering, blood samples of intravenous injection group were collected at time points of predose, 0.0833, 0.25, 0.5, 1, 2, 4, 8, 12 and 24 h; blood samples of oral group were collected at time points of predose, 0.25, 0.5, 1, 2, 4, 8, 12, and 24 h. Standard curve was plotted based on concentrations of the samples in a suitable range, the concentrations of test compounds in plasma samples were determined by using LC-MS/MS. Pharmacokinetic parameters were calculated according to drug concentration-time curve using a noncompartmental method by WinNonLin (Phoenix™, version 6.1) or other similar software.

Structure (SMILES)	IC50 (MCF7) [nM]	ERα % degradation (ERα)	AUC(0-inf) ([1]; IV, 3.0 mg/kg) [µM·h]	clearance ([1]; IV, 3.0 mg/kg) [mL/min/kg]	half-life ([1]; IV, 3.0 mg/kg) [h]	Vd ([1]; IV, 3.0 mg/kg) [L/kg]	bioavailability [1] [%]	AUC(0-inf) ([1]; PO, 10.0 mg/kg) [µM·h]	Cmax ([1]; PO, 10.0 mg/kg) [µM]	Tmax ([1]; PO, 10.0 mg/kg) [h]	half-life ([1]; PO, 10.0 mg/kg) [h]	melting point [°C]
C[C@@H]1Cc2c([nH]c3ccccc23)[C@@H](c2c(F)cc(/C=C/C(=O)O)cc2F)N1[C@H]1CCOC1 [Example 8A, (E)-3-(3,5-Difluoro-4-((1R,3R)-3-methyl-2-((S)-tetrahydrofuran-3-yl)-2,3,4,9-tetrahydro-1H-pyrido[3,4-b]indol-1-yl)phenyl)acrylic acid]	25 to 250	A (A = ERα % degradation ≥80%)	22	5.2	3.2	0.6	109	80	24.5	0.5	2.1	
C[C@@H]1Cc2c([nH]c3ccccc23)[C@@H](c2c(F)cc(/C=C/C(=O)O)cc2F)N1C12CC(C(F)(F)F)(C1)C2 (single isomer, unassigned) [Example 4A]	25 to 250	A (A = ERα % degradation ≥80%)										
C[C@@H]1Cc2c([nH]c3ccccc23)[C@@H](c2c(F)cc(/C=C/C(=O)O)cc2F)N1C12CC(C1)C2 [Example 11A, (E)-3-(4-((1R,3R)-2-(Bicyclo[1.1.1]pentan-1-yl)-3-methyl-2,3,4,9-tetrahydro-1H-pyrido[3,4-b]indol-1-yl)-3,5-difluorophenyl)acrylic acid]	≤ 25	A (A = ERα % degradation ≥80%)	96	1.2	4.2	0.48	88	283	33		3.5	

More lines, now with the values ahead:

IC50 (MCF7) [nM]	ERα % degradation (ERα)	AUC(0-inf) ([1]; IV, 3.0 mg/kg) [µM·h]	clearance ([1]; IV, 3.0 mg/kg) [mL/min/kg]	half-life ([1]; IV, 3.0 mg/kg) [h]	Vd ([1]; IV, 3.0 mg/kg) [L/kg]	bioavailability [1] [%]	AUC(0-inf) ([1]; PO, 10.0 mg/kg) [µM·h]	Cmax ([1]; PO, 10.0 mg/kg) [µM]	Tmax ([1]; PO, 10.0 mg/kg) [h]	half-life ([1]; PO, 10.0 mg/kg) [h]	melting point [°C]	Structure (SMILES)
≤ 25	A (A = ERα % degradation ≥80%)	72	1.6	7.8	0.8	74	179	16.1	4	6.4		C[C@@H]1Cc2c([nH]c3ccccc23)[C@@H](c2c(F)cc(/C=C/C(=O)O)cc2F)N1CC(C)(C)F [AZD9496, (E)-3-(3,5-Difluoro-4-((1R,3R)2-(2-fluoro-2-methylpropyl)-3-methyl-2,3,4,9-tetrahydro-1H-pyrido[3,4b]indol-1-yl)phenyl)acrylic acid, reference compound]
≤ 25											128 to 130	C[C@@H]1Cc2c([nH]c3ccc(F)cc23)[C@@H](c2c(F)cc(/C=C/C(=O)O)cc2F)N1CC(C)(C)F [Example 21A, (E)-3-(3,5-Difluoro-4-((1R,3R)-6-fluoro-2-(2-fluoro-2-methylpropyl)-3-methyl-2,3,4,9-tetrahydro-1H-pyrido[3,4-b]indol-1-yl)phenyl)acrylic acid]
≤ 25	A (A = ERα % degradation ≥80%)	67	1.7	7.7	1	82	185	10.8	2	8.5		C[C@@H]1Cc2c([nH]c3ccccc23)[C@@H](c2c(F)cc(/C=C/C(=O)O)cc2F)N1CC12CC(C1)C2 [Example 5A, (E)-3-(4-((1R,3R)-2-(Bicyclo[1.1.1]pentan-1-ylmethyl)-3-methyl-2,3,4,9-tetrahydro-1H-pyrido[3,4-b]indol-1-yl)-3,5-difluorophenyl)acrylic acid]
25 to 250	B (B = ERα % degradation <80%)											C[C@@H]1Cc2c([nH]c3ccccc23)[C@@H](c2c(F)cc(/C=C/C(=O)O)cc2F)N1CC12CC(F)(C1)C2 [Example 14A, (E)-3-(3,5-Difluoro-4-((1R,3R)-2-((3-fluorobicyclo[1.1.1]pentan-1-yl)methyl)-3-methyl-2,3,4,9-tetrahydro-H-pyrido[3,4-b]indol-1-yl)phenyl)acrylic acid]
